Tests used:
Assay type in all cases: cell-based
[1] = tested on: ASPC1 cells; assay: Soft agar colony formation assay with MTT readout; conditions: Homo sapiens, growth in soft agar, colonies stained with MTT, absorbance 570 nm, 3 independent experiments
Experimental: (§1) Metabolic activity was quantified using Cell Proliferation Kit I (Roche, Basel, Switzerland). Cells were seeded in 96-well cell culture plates, using 5000 cells per well for NCI-H358 cells. After treatment, 10 μl of MTT solution was added and incubated for 2 h in CO2 incubator. Then 100 μl of solubilization buffer was added to each well and incubated overnight in CO2 incubator. Cell viability, assessed by the amount of metabolized MTT, was quantified by measuring absorbance at 570 nm.
(§2) MTT assay for the growth of different tumor cell lines with RAS mutations in soft agar with Mitoxantrone hydrochloride. Shown are data from three independent experiments. NCI-H358, H358, H2122, ASPC-1, HCT-116, T24 and HT1080 cells were used for the soft agar colony formation assay. After the treatment with Mitoxantrone HCl, the colonies were stained with MTT and the value was quantified by measuring absorbance at 570 nm after solubilization. The results represent mean±SEM from 3 independent experiments.

[2] = tested on: HCT-116 cells; assay: Soft agar colony formation assay with MTT readout; conditions: Homo sapiens, growth in soft agar, colonies stained with MTT, absorbance 570 nm, 3 independent experiments
Experimental: as §1, §2

[3] = tested on: HT1080 cells; assay: Soft agar colony formation assay with MTT readout; conditions: Homo sapiens, HT-1080; growth in soft agar, colonies stained with MTT, absorbance 570 nm, 3 independent experiments
Experimental: as §1, §2

[4] = tested on: NCI-H2122 cells; assay: Soft agar colony formation assay with MTT readout; conditions: Homo sapiens, growth in soft agar, colonies stained with MTT, absorbance 570 nm, 3 independent experiments
Experimental: as §1, §2

[5] = tested on: NCI-H358 cells; assay: Soft agar colony formation assay with MTT readout; conditions: Homo sapiens, growth in soft agar, colonies stained with MTT, absorbance 570 nm, 3 independent experiments
Experimental: as §1, §2

[6] = tested on: T24 cells; assay: Soft agar colony formation assay with MTT readout; conditions: Homo sapiens; growth in soft agar, colonies stained with MTT, absorbance 570 nm, 3 independent experiments
Experimental: as §1, §2

[7] = tested on: BaF3 KRAS G12C cells; assay: MTT assay for cell viability in 96 well cell culture plate; conditions: Mus musculus, 48 h treatment
[8] = tested on: BaF3 KRAS G12C/Y96D cells; assay: as above; conditions: Mus musculus, 48 h treatment
[9] = tested on: sNF96.2 cells; assay: RASOpathie-Model, MTT assay for cell viability in 96 well cell culture plate; conditions: 48 h treatment
Experimental: FIG. 5: RASOpathie-Model of Mitoxantrone HCl; MTT assay for cell viability in 96 well cell culture plate
Cells were treated with Mitoxantrone HCl for 48 h and cell viability was evaluated by MTT assay. DMSO-treated cells were set as 1. The results shown are mean±SEM from 3 independent experiments.

[10] = target: T1, HRAS G12V (Homo sapiens, UniProt P01112, G12V); assay: NanoBit assay for RAS activation (LgBiT-RAS / SmBiT-CRAF RBD); conditions: 2 h with inhibitor in serum free DMEM
T1 construct: K, N and HRAS G12V (full length) was cloned with Xho I and Bgl Ito LgBit; expressed in transfected cells
Experimental: (§3) N-terminal LgBiT and C-terminal SmBiT construct was purchased from Promega and K, N and HRAS G12V (full length) was cloned with Xho I and Bgl Ito LgBit and CRAF Ras binding domain (1-149) was cloned with EcoRI and Bgl II to SmBit. For transfections, 1 μg or 2 μg of (12 well/6 well) plasmids were transfected into cells with 0.5 mM of PEI reagent in 100 μl or 200 μl PBS. One day after transfection, cells were harvested and seeded into 96 well white plates, half area (Greiner). After an additional day the medium was changed to serum free DMEM and the cells were incubated for 2 h with inhibitor. NanoGlo assay was performed according to the manufacturer's instructions. The luminescence was measured using Tecan infinite (Tecan).

[11] = target: T2, KRAS G12V (Homo sapiens, UniProt P01116, G12V); assay: as above; conditions: 2 h with inhibitor in serum free DMEM
T2 construct: K, N and HRAS G12V (full length) was cloned with Xho I and Bgl Ito LgBit; expressed in transfected cells
Experimental: as §3

[12] = target: T3, NRAS G12V (Homo sapiens, UniProt P01111, G12V); assay: as above; conditions: 2 h with inhibitor in serum free DMEM
T3 construct: K, N and HRAS G12V (full length) was cloned with Xho I and Bgl Ito LgBit; expressed in transfected cells
Experimental: as §3

[13] = tested on: KRAS mutants (G12V, G12C, G12D, G12C/Y96D, G13C, G13D, G13S, Q61K and Q61R); assay: NanoBiT assay for RAS GTP-loading in HeLa cells, LgBit-KRAS mutants and SmBit-CRAF-RBD; conditions: 2 h in serum-free DMEM, normalized to DMSO
Experimental: NanoBiT assay for the RAS GTP-loading was performed in HeLa cells transfected with LgBit-KRAS mutants and SmBit-CRAF-RBD. Cells were treated with Mitoxantrone HCl for 2 h in serum-free DMEM. After incubation, the substrate for NanoLuc was added, and the luminescence was measured in a multiplate reader. Data were normalized to cells transfected with the indicated mutant and exposed to DMSO for 2 h. DMSO-treated cells were set as 1. The bars represent mean±SEM from 3 independent experiments.

T3 sequence (P01111 whole entry G12V): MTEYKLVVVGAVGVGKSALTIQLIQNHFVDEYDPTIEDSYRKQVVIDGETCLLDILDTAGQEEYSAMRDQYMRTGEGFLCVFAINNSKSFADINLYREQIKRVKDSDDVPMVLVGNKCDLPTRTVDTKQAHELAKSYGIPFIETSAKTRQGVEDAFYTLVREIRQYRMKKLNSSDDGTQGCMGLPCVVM

For `Cl.Cl.O=C1c2c(O)ccc(O)c2C(=O)c2c(NCCNCCO)ccc(NCCNCCO)c21` [Mitoxantrone HCl, 1,4-dihydroxy-5,8-bis({2-[(2-hydroxy-ethyl)amino]ethyl}amino)-9,10-anthrachinone dihydrochloride], the IC50 [1] was 0.6 µM, the IC50 [2] was 0.27 µM and the IC50 [3] was 0.13 µM. It also gave an IC50 [4] of 0.25 µM, an IC50 [5] of 1.5 µM and an IC50 [6] of 0.43 µM. For the same compound, the IC50 [7] was 24.2 µM, the IC50 [8] was 24 µM and the IC50 [9] was 3.71 µM. The “RAS activation, H-RAS (NanoBit luminescence)” value [10] was “inhibits”, the “RAS activation, K-RAS (NanoBit luminescence)” value [11] was “inhibits” and the “RAS activation, N-RAS (NanoBit luminescence)” value [12] was “inhibits”. For the same compound, the “RAS activation / GTP-loading of KRAS mutants (NanoBiT luminescence)” value [13] was “inhibits”.
